The compounds below were run against T1, human GluR2 flip (unedited) AMPA receptor subunit (Homo sapiens, UniProt P42262) (assay: Calcium influx fluorescence assay (FLUO4, FLIPR), potentiation of glutamate response). Conditions: HEK293; HEK 293 cells expressing human GluR2 flip (unedited); fluorescence increase relative to that induced by cyclothiazide at maximum response; read-out: activity relative to cyclothiazide (at its maximal response).
T1 construct: expressed in transfected cells
Format: cell-based
Procedure: The ability of the compounds of the invention to potentiate glutamate receptor-mediated response may be determined a) by using fluorescent calcium-indicator dyes such as FLUO4 and additionally b) by measuring glutamate-evoked current recorded from human GluR2 flip unedited HEK293 cells.
384 well plates are prepared containing confluent monolayer of HEK 293 cells either stably expressing or transiently transfected with human GluR2 flip (unedited) AMPA receptor subunit. These cells form functional homotetrameric AMPA receptors. The tissue culture medium in the wells are discarded and the wells are each washed three times with standard buffer (80 μL) for the stable cell line (145 mM NaCl, 5 mM KCl, 1 mM MgCl2, 2 mM CaCl2, 20 mM N-[2-hydroxyethyl]-piperazine-N-[2-ethanesulfonic acid (HEPES), 5.5 mM glucose, pH 7.3) or with a Na-free buffer for the transient transfected cells (145 mM N-methyl-glucamine instead of NaCl). The plates are then incubated for 60 minutes in the dark with 2 μM FLUO4-AM dye (20 μL) (Molecular Probes, Netherlands) at room temperature to allow cell uptake of the FLUO-4AM, which is then converted to FLUO-4 by intracellular esterases which is unable to leave the cell. After incubation each well is washed three times with buffer (80 μL) (30 μL of buffer remained in each well after washing).
Compounds of the invention (or reference compounds such as cyclothiazide) are dissolved in dimethylsulfoxide (DMSO) at a stock concentration of 10 mM. These solutions are further diluted with DMSO using a Biomek FX (Beckman Coulter) in a 384 compound plate. Each dilution (1 μL) is transferred to another compound plate and buffer (50 μL) is added. An agonist stimulus (glutamate) plate is prepared by dissolving sodium glutamate in water to give a concentration of 100 mM. This solution is diluted with buffer to give a final concentration of 500 μM and dispensed into another 384-well plate (50 μL/well) using a Multidrop (Thermolabsystems).
The cell plate is then transferred into a fluorescence imaging plate based reader [such as the FLIPR384 (Molecular Devices)]. A baseline fluorescence reading is taken over a 10 to 240 second period, and then 10 μL from each plate containing a compound of the invention made up in standard buffer solution (in a concentration range from 100 μM to 10 μM) is added (to give a final concentration in the range 30 μM to 3 μM). The fluorescence is read over 5 minute period. 500 μM glutamate solution (10 μL) is added (to give a final concentration of 100 μM). The fluorescence is then read over a 4 minute period. The activities of the compounds of the invention and reference compounds are determined by measuring peak fluorescence after the last addition. The activity is also expressed relative to the fluorescence increase induced by cyclothiazide at their maximum response (i.e. greater than 30 μM).
The assay described above is believed to have an effective limit of detection of a pEC50 in the region of 3.5-4.0 due to the limitations of compound solubility. The pEC50 result is generally considered to be accurate +/−0.3.

T1 sequence (P42262 25-883 isoform P42262-2 limits assumed): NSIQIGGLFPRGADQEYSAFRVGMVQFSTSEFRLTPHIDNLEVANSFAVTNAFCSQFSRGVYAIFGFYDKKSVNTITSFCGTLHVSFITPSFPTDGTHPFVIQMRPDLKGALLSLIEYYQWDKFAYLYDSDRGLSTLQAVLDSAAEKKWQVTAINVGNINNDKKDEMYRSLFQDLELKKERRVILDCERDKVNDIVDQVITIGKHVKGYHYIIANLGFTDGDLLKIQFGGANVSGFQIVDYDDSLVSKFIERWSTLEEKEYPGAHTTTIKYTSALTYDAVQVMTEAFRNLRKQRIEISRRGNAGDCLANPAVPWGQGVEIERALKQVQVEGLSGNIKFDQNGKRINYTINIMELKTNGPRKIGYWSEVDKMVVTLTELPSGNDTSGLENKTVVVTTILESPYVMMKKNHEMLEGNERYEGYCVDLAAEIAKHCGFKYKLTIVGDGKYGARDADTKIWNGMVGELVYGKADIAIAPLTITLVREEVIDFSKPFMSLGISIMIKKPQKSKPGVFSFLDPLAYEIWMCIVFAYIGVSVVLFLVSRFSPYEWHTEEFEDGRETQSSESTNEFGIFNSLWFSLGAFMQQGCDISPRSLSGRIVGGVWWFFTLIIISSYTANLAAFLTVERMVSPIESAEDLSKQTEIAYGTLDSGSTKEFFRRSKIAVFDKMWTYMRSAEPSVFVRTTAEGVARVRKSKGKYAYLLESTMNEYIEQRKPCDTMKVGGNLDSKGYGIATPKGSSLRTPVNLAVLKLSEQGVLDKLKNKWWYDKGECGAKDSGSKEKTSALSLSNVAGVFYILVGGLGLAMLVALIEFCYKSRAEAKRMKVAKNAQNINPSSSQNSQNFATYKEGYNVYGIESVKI

Row | SMILES | Emax
1 | CC(C)S(=O)(=O)N[C@@H]1COC[C@@H]1c1ccc(-c2cccs2)cc1 (racemic) [Example 12, N-{cis-4-[4-(2-thienyl)phenyl]tetrahydro-3-furanyl}-2-propanesulfonamide] | ≥ 50%
2 | CC(C)S(=O)(=O)N[C@@H]1COC[C@@H]1c1ccc(-c2cncc(F)c2)cc1 (racemic) [Example 4, N-{cis-4-[4-(5-fluoro-3-pyridinyl)phenyl]tetrahydro-3-furanyl}-2-propanesulfonamide] | ≥ 50%
3 | CC(C)S(=O)(=O)N[C@@H]1COC[C@@H]1c1ccc(-c2ccc(F)nc2)cc1 (racemic) [Example 1, N-{cis-4-[4-(6-fluoro-3-pyridinyl)phenyl]tetrahydro-3-furanyl}-2-propanesulfonamide] | ≥ 50%
4 | CC(C)S(=O)(=O)N[C@@H]1COC[C@@H]1c1ccc(-c2ccc3c(c2)OCO3)cc1 (racemic) [Example 10, N-{cis-4-[4-(1,3-benzodioxol-5-yl)phenyl]tetrahydro-3-furanyl}-2-propanesulfonamide] | ≥ 50%
5 | CC(C)S(=O)(=O)N[C@@H]1COC[C@@H]1c1ccc(-c2ccc(C#N)cc2)cc1 (racemic) [Example 8, N-[cis-4-(4′-cyano-4-biphenylyl)tetrahydro-3-furanyl]-2-propanesulfonamide] | ≥ 50%
6 | CC(C)S(=O)(=O)N[C@@H]1COC[C@@H]1c1ccc(-c2ccc(F)cn2)cc1 (racemic) [Example 3, N-{cis-4-[4-(5-fluoro-2-pyridinyl)phenyl]tetrahydro-3-furanyl}-2-propanesulfonamide] | ≥ 50%
7 | CC(=O)c1cccc(-c2ccc([C@H]3COC[C@H]3NS(=O)(=O)C(C)C)cc2)c1 (racemic) [Example 9, N-[cis-4-(3′-acetyl-4-biphenylyl)tetrahydro-3-furanyl]-2-propanesulfonamide] | ≥ 50%
8 | CC(C)S(=O)(=O)N[C@@H]1COC[C@@H]1c1ccc(-c2ccc(Cl)cn2)cc1 (racemic) [Example 5, N-{cis-4-[4-(5-chloro-2-pyridinyl)phenyl]tetrahydro-3-furanyl}-2-propanesulfonamide] | ≥ 50%
9 | Cc1ccc(-c2ccc([C@H]3COC[C@H]3NS(=O)(=O)C(C)C)cc2)cn1 (racemic) [Example 2, N-{cis-4-[4-(6-methyl-3-pyridinyl)phenyl]tetrahydro-3-furanyl}-2-propanesulfonamide] | ≥ 50%
10 | CC(C)S(=O)(=O)N[C@@H]1COC[C@@H]1c1ccc(-c2ccc(F)cc2)cc1 (racemic) [Example 7, N-[cis-4-(4′-fluoro-4-biphenylyl)tetrahydro-3-furanyl]-2-propanesulfonamide] | ≥ 50%
11 | CC(C)S(=O)(=O)N[C@@H]1COC[C@@H]1c1ccc(-c2ccsc2)cc1 (racemic) [Example 11, N-{cis-4-[4-(3-thienyl)phenyl]tetrahydro-3-furanyl}-2-propanesulfonamide] | ≥ 50%
12 | Cc1cncc(-c2ccc([C@H]3COC[C@H]3NS(=O)(=O)C(C)C)cc2)c1 (racemic) [Example 6, N-{cis-4-[4-(5-methyl-3-pyridinyl)phenyl]tetrahydro-3-furanyl}-2-propanesulfonamide] | ≥ 50%
